# Assay results taken from publication PMC10275055, “Preventing recurrence in Sonic Hedgehog Subgroup Medulloblastoma using the OLIG2 inhibitor CT-179” (Research Square, 2023).
# Target: T1, OLIG2 dimerization (Homo sapiens, UniProt Q13516)
# T1 construct: expressed in transfected cells; host or cells: HEK293
# T1 sequence (Q13516 1-323): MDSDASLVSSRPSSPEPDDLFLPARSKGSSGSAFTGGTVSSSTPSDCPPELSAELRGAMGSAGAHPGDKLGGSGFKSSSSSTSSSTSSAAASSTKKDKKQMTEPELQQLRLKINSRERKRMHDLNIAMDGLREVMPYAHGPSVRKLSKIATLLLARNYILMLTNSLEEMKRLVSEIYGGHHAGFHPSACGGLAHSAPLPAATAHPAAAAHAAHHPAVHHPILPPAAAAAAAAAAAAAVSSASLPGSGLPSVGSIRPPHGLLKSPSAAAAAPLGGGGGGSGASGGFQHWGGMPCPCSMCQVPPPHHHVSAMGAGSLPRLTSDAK
# Test: FCCS of OLIG2 dimerization in live HEK293 cells co-transfected with OLIG2-eGFP and OLIG2-Tomato
# Format: cell-based
# Experimental: HEK293 cells were maintained in a humidified atmosphere containing 5 % CO2 at 37 °C in Dulbecco’s Modified Eagle Medium supplemented with 10 % fetal bovine serum (FBS) and antibiotics (100 U/mL penicillin and 100 μg/mL streptomycin). One day before the transfection, HEK293 cells were split into Lab-Tek 8-well chambered Coverglass (Thermo Fisher Scientific). HEK293 cells on and 8-well chamber were transfected with plasmid DNA (OLIG2-eGFP and OLIG2-Tomato; or with eGFP and Tomato as negative control) using Lipofectamine 2000 (Thermo Fisher Scientific). After the transfection, HEK293 cells were cultured for 24 h at 37 °C. […]
# CLSM imaging and FCCS measurements were performed using an LSM880 microscope system (Carl Zeiss, Germany) equipped with an Ar-ion laser with three lines: 458 nm, 488 nm and 514 nm, 543 nm He-Ne laser, and a water immersion objective lens (C-Apochromat, 40×, 1.2 N.A., Corr, Carl Zeiss), and a gallium arsenide phosphide (GaAsP) spectral array detector and photomultiplier tube (PMT) spectral array detector. eGFP and Tomato were excited using 488 nm laser and 543 nm laser, respectively. […] The emitted fluorescence was split by a diffraction grating and detected using a GaAsP detector (wavelength range 496–534 nm for eGFP) and a PMT detector (wavelength range 580–758 nm for Tomato). […]
# Data acquired by FCCS was analyzed using the ZEN software (Carl Zeiss). […]
smiles,measurement,setting,value
Cc1cc(NCCCN(C)C)nc(NC(=O)Nc2ccc(Cl)c(Cl)c2)n1 [CT-179],relative cross-correlation amplitude (RCA),1 μM for one hour,significantly decreased
same,"allosteric factor, nallo",best fit of RCA dose-response curve,−0.66
